The source made the active and inactive calls. The rule behind the calls is not given here.
Legend:
Mus musculus [1] = test: Neurotoxicity in Mus musculus C57B/6 (mouse) assessed as minimal motor impairment at 300 mg/kg, ip after 0.5 hr; format: toxicity, organism-based; design: dose 300 mg/kg, route intraperitoneal; details: in vivo
[2] = Neurotoxicity in ip dosed Mus musculus C57B/6 (mouse) assessed as minimal motor impairment after 4 hr; format: toxicity, organism-based; details: in vivo
Mus musculus [3] = test: Anticonvulsant activity in Mus musculus C57B/6 (mouse) assessed as protection against subcutaneous pentylene tetrazole-induced seizure at 300 mg/kg, ip after 4 hr; format: functional, organism-based; design: dose 300 mg/kg
Mus musculus [4] = test: Anticonvulsant activity in Mus musculus C57B/6 (mouse) assessed as protection against subcutaneous pentylene tetrazole-induced seizure at 300 mg/kg, ip after 0.5 hr; format: functional, organism-based; design: dose 300 mg/kg
Mus musculus [5] = test: Anticonvulsant activity in Mus musculus C57B/6 (mouse) assessed as protection against maximal electroshock-induced seizure at 300 mg/kg, ip after 4 hr; format: functional, organism-based; design: dose 300 mg/kg
Mus musculus [6] = test: Anticonvulsant activity in Mus musculus C57B/6 (mouse) assessed as protection against maximal electroshock-induced seizure at 300 mg/kg, ip after 0.5 hr; format: functional, organism-based; design: dose 300 mg/kg
Mus musculus [7] = test: Anticonvulsant activity in ip dosed Mus musculus C57B/6 (mouse) assessed as protection against maximal electroshock-induced seizure after 4 hr; format: functional; details: C57B/6, ip, read-out: MED
Mus musculus [8] = test: Anticonvulsant activity in ip dosed Mus musculus C57B/6 (mouse) assessed as protection against maximal electroshock-induced seizure after 0.5 hr; format: functional; details: C57B/6, ip, read-out: MED
Mus musculus [9] = test: Anticonvulsant activity in Mus musculus C57B/6 (mouse) assessed as protection against 6 Hz psychomotor seizure at 100 mg/kg, ip after 0.25 to 4 hr by minimal clonic seizure test; format: functional, organism-based; design: dose 100 mg/kg
Mus musculus [10] = test: Neurotoxicity in Mus musculus C57B/6 (mouse) assessed as minimal motor impairment at 300 mg/kg, ip after 4 hr; format: toxicity, organism-based; design: dose 300 mg/kg, route intraperitoneal; details: in vivo
Mus musculus [11] = test: Anticonvulsant activity in ip dosed Mus musculus C57B/6 (mouse) assessed as protection against subcutaneous pentylene tetrazole-induced seizure after 0.5 hr; format: functional; details: C57B/6, 0.5 h, read-out: MED

SMILES | Activity (Mus musculus [1]) | MTD at 4 h [2] [mg/kg] | Activity (Mus musculus [3]) | Activity (Mus musculus [4]) | Activity (Mus musculus [5]) | Activity (Mus musculus [6]) | minimal effective dose (Mus musculus [7]) [mg/kg] | minimal effective dose (Mus musculus [8]) [mg/kg] | Activity (Mus musculus [9]) | Activity (Mus musculus [10]) | minimal effective dose (Mus musculus [11]) [mg/kg]
CN(C)c1ccc(/C=N/NC(=O)c2ccncc2)cc1 [N'-(4-DIMETHYLAMINOBENZYLIDENE)ISONICOTINOHYDRAZIDE] | Non-toxic | 300 | inactive | inactive | inactive | inactive | – | – | – | – | –
O=C1NC(=O)C(c2ccccc2)(c2ccccc2)N1 [PHENYTOIN] | – | – | inactive | inactive | – | – | 30 | 30 | – | – | –
CCOc1ccccc1/C=N/NC(=O)c1ccncc1 | Non-toxic | – | inactive | inactive | inactive | – | – | 300 | Active | Non-toxic | –
O=C(N/N=C/c1cccc(F)c1)c1ccncc1 | Non-toxic | – | inactive | inactive | inactive | – | – | 300 | Active | Non-toxic | –
C/C(=N\NC(=O)c1ccncc1)c1ccccc1 [ISONICOTINOYLHYDRAZONE OF ACETOPHENONE] | – | 300 | inactive | inactive | inactive | inactive | – | – | – | – | –
O=C(N/N=C(\c1ccccc1)c1ccc(Br)cc1)c1ccncc1 | Non-toxic | 100 | inactive | inactive | inactive | inactive | – | – | – | – | –
O=C(N/N=C/c1ccccc1)c1ccncc1 [N'-BENZYLIDENE ISONICOTINOHYDRAZIDE] | Non-toxic | – | inactive | inactive | inactive | – | – | 300 | Active | Non-toxic | –
O=C(NN=C(c1ccccc1)c1ccccc1)c1ccncc1 | Non-toxic | – | inactive | – | inactive | – | – | 300 | Active | Non-toxic | 300

Source: ChEMBL document CHEMBL3045135, “Synthesis, characterization and pharmacological evaluation of (E)-N-(substituted-benzylidene)isonicotinohydrazide derivatives as potent anticonvulsant agents” (Med Chem Res, 2012)
